This is an account of results in US20100076015A1, “Aminopyridine Derivatives” (VANTIA LIMITED, priority 2008, published 2010).

The test deals with T1, Human KLK1 (Homo sapiens, UniProt P06870).
T1 construct: purchased Callbiochem (Calbiochem)
Briefly: Determination of the IC50 for KLK1 (fluorogenic substrate H-DVal-Leu-Arg-AFC). The format is biochemical. To be noted: 37° C. In a few lines:
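IC50 values reflect residual human KLK1 activity, read as initial rate from optical absorbance change at 410 nm. Incubations ran at 37° C with H-DVal-Leu-Arg-AFC as substrate across a compound concentration series.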

T1 sequence (P06870 25-262): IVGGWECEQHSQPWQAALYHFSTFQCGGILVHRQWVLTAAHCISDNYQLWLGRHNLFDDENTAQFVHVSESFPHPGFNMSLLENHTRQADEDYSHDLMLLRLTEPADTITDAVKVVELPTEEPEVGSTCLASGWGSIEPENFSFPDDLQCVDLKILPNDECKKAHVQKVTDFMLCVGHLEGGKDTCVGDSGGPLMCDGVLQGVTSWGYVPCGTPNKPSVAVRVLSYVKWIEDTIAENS

On to `CN[C@H](Cc1ccccc1)C(=O)N[C@@H](Cc1cccc(Cl)c1)C(=O)NCc1ccc(N)nc1` [Example 342, (R)—N-[(S)-1-[(6-Amino-pyridin-3-ylmethyl)-carbamoyl]-2-(3-chloro-phenyl)-ethyl]-2-methylamino-3-phenyl-propionamide], for which the IC50 is 2.7 nM.
As for `Cc1cc[nH]c1C(=O)N[C@@H](Cc1ccc(C(F)(F)F)cc1)C(=O)NCc1ccc(N)nc1` [Example 258, 3-Methyl-1H-pyrrole-2-carboxylic acid [(S)-1-[(6-amino-pyridin-3-ylmethyl)-carbamoyl]-2-(4-trifluoromethyl-phenyl)-ethyl]-amide], the figure is 10.3 nM.
The result for `Cc1cc[nH]c1C(=O)N[C@@H](Cc1cccc(C(F)(F)F)c1)C(=O)NCc1ccc(N)nc1` [Example 271, 3-Methyl-1H-pyrrole-2-carboxylic acid [(S)-1-[(6-amino-pyridin-3-ylmethyl)-carbamoyl]-2-(3-trifluoromethyl-phenyl)-ethyl]-amide] reads 3.3 nM; that for `Nc1ccc(CNC(=O)[C@H](Cc2ccc(F)c(F)c2)NC(=O)CN2CCCc3ccccc32)cn1` [Example 173, (S)—N-(6-Amino-pyridin-3-ylmethyl)-3-(3,4-difluoro-phenyl)-2-(2-3,4-dihydro-2H-quinolin-1-yl-acetylamino)-propionamide], 78.3 nM; that for `Nc1ccc(CNC(=O)[C@H](Cc2ccc(Cl)c(Cl)c2)NC(=O)CN2CCCCC2)cn1` [Example 404, (S)—N-(6-Amino-pyridin-3-ylmethyl)-3-(3,4-dichloro-phenyl)-2-(2-piperidin-1-yl-acetylamino)-propionamide], 33.4 nM.
Regarding `Cc1ccc(C[C@H](NC(=O)c2[nH]c(C)cc2C)C(=O)NCc2ccc(N)nc2)cc1` [Example 253, 3,5-Dimethyl-1H-pyrrole-2-carboxylic acid {(S)-1-[(6-amino-pyridin-3-ylmethyl)-carbamoyl]-2-p-tolyl-ethyl}-amide], the IC50 was determined as 12.5 nM.
Regarding `CC(C)CN(C)[C@@H](C)C(=O)N[C@@H](Cc1ccc(F)c(F)c1)C(=O)NCc1ccc(N)nc1` [Example 177, (S)—N-[(S)-1-[(6-Amino-pyridin-3-ylmethyl)-carbamoyl]-2-(3,4-difluoro-phenyl)-ethyl]-2-(isobutyl-methyl-amino)-propionamide], the midpoint of inhibition, the IC50, lay at 1.9 nM.
With `CC(C)N1CCC[C@@H]1C(=O)N[C@@H](Cc1cccc2ccccc12)C(=O)NCc1ccc(N)nc1` [Example 118, (R)-1-Isopropyl-pyrrolidine-2-carboxylic acid {(S)-1-[(6-amino-pyridin-3-ylmethyl)-carbamoyl]-2-naphthalen-1-yl-ethyl}-amide], it took 2.1 nM to reach half-maximal inhibition (IC50).
As for `CN[C@@H](C)C(=O)N[C@@H](Cc1ccc(F)cc1)C(=O)NCc1ccc(N)nc1` [Example 88, (S)—N-[(S)-1-[(6-Amino-pyridin-3-ylmethyl)-carbamoyl]-2-(4-fluoro-phenyl)-ethyl]-2-methylamino-propionamide], the figure is 6.7 nM.
Regarding `CC(C)N(CC(=O)N[C@@H](CC1CCCCC1)C(=O)NCc1ccc(N)nc1)C(C)C` [Example 393, (S)—N-(6-Amino-pyridin-3-ylmethyl)-3-cyclohexyl-2-(2-diisopropylamino-acetylamino)-propionamide], the IC50 came to 26.9 nM.
Turning to `CC(C)N1CCC[C@@H]1C(=O)N[C@@H](Cc1ccc(F)cc1)C(=O)NCc1ccc(N)nc1` [Example 119, (R)-1-Isopropyl-pyrrolidine-2-carboxylic acid [(S)-1-[(6-amino-pyridin-3-ylmethyl)-carbamoyl]-2-(4-fluoro-phenyl)-ethyl]-amide], half-maximal inhibition (IC50) required 1.8 nM.
As for `CN1CCC[C@H]1C(=O)N[C@@H](C(=O)NCc1ccc(N)nc1)C(C1CCCCC1)C1CCCCC1` [Example 223, (S)-1-Methyl-pyrrolidine-2-carboxylic acid {(R)-1-[(6-amino-pyridin-3-ylmethyl)-carbamoyl]-2,2-dicyclohexyl-ethyl}-amide], the figure is 17.4 nM; as for `CN(CC(=O)N[C@@H](Cc1ccc(F)c(F)c1)C(=O)NCc1ccc(N)nc1)Cc1cccc(Cl)c1` [Example 164, (S)—N-(6-Amino-pyridin-3-ylmethyl)-2-{2-[(3-chloro-benzyl)-methyl-amino]-acetylamino}-3-(3,4-difluoro-phenyl)-propionamide], 345 nM.
The result for `CCC(C)[C@@H](N)C(=O)N[C@@H](Cc1ccccc1C)C(=O)NCc1ccc(N)nc1` (stereo partly drawn) [Example 28, (R)-2-Amino-3-methyl-pentanoic acid {(S)-1-[(6-amino-pyridin-3-ylmethyl)-carbamoyl]-2-o-tolyl-ethyl}-amide] reads 32.1 nM.
The result for `C[C@@H](C(=O)N[C@@H](Cc1ccc(F)cc1)C(=O)NCc1ccc(N)nc1)N1CCCCC1` [Example 375, (S)—N-[(S)-1-[(6-Amino-pyridin-3-ylmethyl)-carbamoyl]-2-(4-fluoro-phenyl)-ethyl]-2-piperidin-1-yl-propionamide] reads 4.9 nM; that for `CCN1CCC[C@@H]1C(=O)N[C@@H](Cc1cccc(Cl)c1)C(=O)NCc1ccc(N)nc1` [Example 138, (R)-1-Ethyl-pyrrolidine-2-carboxylic acid [(S)-1-[(6-amino-pyridin-3-ylmethyl)-carbamoyl]-2-(3-chloro-phenyl)-ethyl]-amide], 39.8 nM; that for `CC(C)N1CCCC[C@@H]1C(=O)N[C@@H](Cc1ccc(F)c(F)c1)C(=O)NCc1ccc(N)nc1` [Example 146, (R)-1-Isopropyl-piperidine-2-carboxylic acid [(S)-1-[(6-amino-pyridin-3-ylmethyl)-carbamoyl]-2-(3,4-difluoro-phenyl)-ethyl]-amide], 102 nM.
Regarding `Cc1cccc(C[C@H](NC(=O)c2cc3ccccc3[nH]2)C(=O)NCc2ccc(N)nc2C)c1` [Example 319, 1H-Indole-2-carboxylic acid {(S)-1-[(6-amino-2-methyl-pyridin-3-ylmethyl)-carbamoyl]-2-m-tolyl-ethyl}-amide], the IC50 worked out at 110 nM.
As for `CN[C@@H](C)C(=O)N[C@@H](C(=O)NCc1ccc(N)nc1)C(C1CCCCC1)C1CCCCC1` [Example 218, (S)—N-{(R)-1-[(6-Amino-pyridin-3-ylmethyl)-carbamoyl]-2,2-dicyclohexyl-ethyl}-2-methylamino-propionamide], the figure is 35.3 nM.
With `CCC(C)[C@@H](N)C(=O)N[C@@H](C(=O)NCc1ccc(N)nc1)C(C1CCCCC1)C1CCCCC1` (stereo partly drawn) [Example 214, (R)-2-Amino-3-methyl-pentanoic acid {(R)-1-[(6-amino-pyridin-3-ylmethyl)-carbamoyl]-2,2-dicyclohexyl-ethyl}-amide], it took 16.9 nM to reach half-maximal inhibition (IC50).
As for `CN(C)[C@@H](C(=O)N[C@@H](Cc1ccc(F)cc1)C(=O)NCc1ccc(N)nc1)C(C)(C)C` [Example 183, (R)—N-[(S)-1-[(6-Amino-pyridin-3-ylmethyl)-carbamoyl]-2-(4-fluoro-phenyl)-ethyl]-2-dimethylamino-3,3-dimethyl-butyramide], the IC50 was 5.1 nM.
The result for `CCC(C)[C@@H](NC)C(=O)N[C@@H](Cc1ccc(O)cc1)C(=O)NCc1ccc(N)nc1` (stereo partly drawn) [Example 47, (R)-3-Methyl-2-methylamino-pentanoic acid [(S)-1-[(6-amino-pyridin-3-ylmethyl)-carbamoyl]-2-(4-hydroxy-phenyl)-ethyl]-amide] reads 316 nM; that for `CN1CCCC1C(=O)NC(Cc1c(F)c(F)c(F)c(F)c1F)C(=O)NCc1ccc(N)nc1` [Example 97, (R)-1-Methyl-pyrrolidine-2-carboxylic acid {(S)-1-[(6-amino-pyridin-3-ylmethyl)-carbamoyl]-2-pentafluorophenyl-ethyl}-amide], 45.2 nM.
As for `CN[C@H](C)C(=O)N[C@@H](Cc1ccc(F)c(F)c1)C(=O)NCc1ccc(N)nc1` [Example 84, (R)—N-[(S)-1-[(6-Amino-pyridin-3-ylmethyl)-carbamoyl]-2-(3,4-difluoro-phenyl)-ethyl]-2-methylamino-propionamide], the IC50 was found to be 8 nM.
The result for `Cc1cccc(C[C@H](NC(=O)[C@H]2CCCN2C(C)C)C(=O)NCc2ccc(N)nc2)c1` [Example 122, (R)-1-Isopropyl-pyrrolidine-2-carboxylic acid {(S)-1-[(6-amino-pyridin-3-ylmethyl)-carbamoyl]-2-m-tolyl-ethyl}-amide] reads 1.8 nM; that for `C[C@H](C(=O)N[C@@H](Cc1ccc(Cl)c(Cl)c1)C(=O)NCc1ccc(N)nc1)N1CCCCC1` [Example 402, (R)—N-[(S)-1-[(6-Amino-pyridin-3-ylmethyl)-carbamoyl]-2-(3,4-dichloro-phenyl)-ethyl]-2-piperidin-1-yl-propionamide], 13 nM.
For `CN[C@@H](C)C(=O)N[C@@H](Cc1ccc(F)c(F)c1)C(=O)NCc1ccc(N)nc1` [Example 85, (S)—N-[(S)-1-[(6-Amino-pyridin-3-ylmethyl)-carbamoyl]-2-(3,4-difluoro-phenyl)-ethyl]-2-methylamino-propionamide], the IC50 was 13.9 nM.
As for `CCC(C)[C@@H](NC)C(=O)N[C@@H](Cc1cc(F)cc(F)c1)C(=O)NCc1ccc(N)nc1` (stereo partly drawn) [Example 49, (R)-3-Methyl-2-methylamino-pentanoic acid [(S)-1-[(6-amino-pyridin-3-ylmethyl)-carbamoyl]-2-(3,5-difluoro-phenyl)-ethyl]-amide], the figure is 4.2 nM; as for `Cc1cc(C)c(C(=O)N[C@@H](Cc2cc(F)cc(F)c2)C(=O)NCc2ccc(N)nc2)[nH]1` [Example 249, 3,5-Dimethyl-1H-pyrrole-2-carboxylic acid [(S)-1-[(6-amino-pyridin-3-ylmethyl)-carbamoyl]-2-(3,5-difluoro-phenyl)-ethyl]-amide], 6.9 nM; as for `Nc1ccc(CNC(=O)[C@H](Cc2ccc(F)c(F)c2)NC(=O)c2cc3cc(F)ccc3[nH]2)cn1` [Example 326, 5-Fluoro-1H-indole-2-carboxylic acid [(S)-1-[(6-amino-pyridin-3-ylmethyl)-carbamoyl]-2-(3,4-difluoro-phenyl)-ethyl]-amide], 25.4 nM.

Usually IC50 stands for the concentration at which inhibition is half-maximal.
